Laboratory results: patent US20120315654A1, “COMPOSITIONS AND METHODS FOR DETECTING CARDIOTOXICITY” (DUKE UNIVERSITY, priority 2011, published 2012)
One block for each molecule: values may come before it.

How the values were obtained:
[1] = target: T1, CrT (Homo sapiens, UniProt P48029); assay: 14C-Cr transport in HL-1 cells expressing the human CrT protein (dose-response, time course, kinetics); format: cell-based; conditions: HL-1 cells expressing human CrT, Michaelis-Menten, no DOX
T1 construct: swapped with the corresponding fragment from the human full-length open reading frame; expressed in transfected cells; host or cells: HL-1 murine atrial cardiomyocyte line, transient transfection with pcDNA3.1(-) human CrT cDNA
T1 sequence (P48029 1-635): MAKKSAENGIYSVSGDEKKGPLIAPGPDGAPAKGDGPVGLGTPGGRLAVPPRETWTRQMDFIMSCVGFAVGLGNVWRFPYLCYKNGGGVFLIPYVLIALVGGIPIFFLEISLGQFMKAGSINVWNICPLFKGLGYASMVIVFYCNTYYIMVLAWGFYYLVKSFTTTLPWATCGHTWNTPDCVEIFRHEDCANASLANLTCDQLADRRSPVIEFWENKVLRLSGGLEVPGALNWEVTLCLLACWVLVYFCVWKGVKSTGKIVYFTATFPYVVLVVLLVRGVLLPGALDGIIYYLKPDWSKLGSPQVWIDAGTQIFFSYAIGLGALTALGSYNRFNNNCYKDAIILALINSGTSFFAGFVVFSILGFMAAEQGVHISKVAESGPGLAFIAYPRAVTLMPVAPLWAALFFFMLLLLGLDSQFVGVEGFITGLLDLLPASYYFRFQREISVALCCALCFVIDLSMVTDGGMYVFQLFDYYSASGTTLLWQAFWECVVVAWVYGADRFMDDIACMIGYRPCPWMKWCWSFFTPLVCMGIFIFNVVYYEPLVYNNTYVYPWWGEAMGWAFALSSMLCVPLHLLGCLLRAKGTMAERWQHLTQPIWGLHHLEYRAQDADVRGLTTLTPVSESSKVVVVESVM
Procedure: The cultures were maintained in a humidified atmosphere of 5% CO2 at 37° C.
(§1) Cells used for Cr transport assays were cultured in 24-well plates coated with fibronectin and gelatin. The wells were washed twice with room temperature choline buffer (150 mmol/L choline chloride; 1 mmol/L CaCl2; 5 mmol/L MgCl2; 2 mmol/L KCl; and 5 mmol/L HEPES-Tris, pH 7.5).
(§2) The cells were lysed with 500 mmol/L NaOH and heated to 80° C. for 30 min. 100 μl of cell lysate was subjected to scintillation counting using a BECKMAN COULTER LS 6500 scintillation counter. Cr transport was normalized to the protein concentration measured using the bicinchoninic acid (BCA) protein assay (PIERCE BIOTECHNOLOGY, Rockford, Ill.).

[2] = target: T2, Cr transport (Homo sapiens, UniProt P48029); conditions: Dai W. et al., 1999; read-out: IC50 for inhibition of Cr transport; cited from earlier work
T2 sequence (P48029 1-635): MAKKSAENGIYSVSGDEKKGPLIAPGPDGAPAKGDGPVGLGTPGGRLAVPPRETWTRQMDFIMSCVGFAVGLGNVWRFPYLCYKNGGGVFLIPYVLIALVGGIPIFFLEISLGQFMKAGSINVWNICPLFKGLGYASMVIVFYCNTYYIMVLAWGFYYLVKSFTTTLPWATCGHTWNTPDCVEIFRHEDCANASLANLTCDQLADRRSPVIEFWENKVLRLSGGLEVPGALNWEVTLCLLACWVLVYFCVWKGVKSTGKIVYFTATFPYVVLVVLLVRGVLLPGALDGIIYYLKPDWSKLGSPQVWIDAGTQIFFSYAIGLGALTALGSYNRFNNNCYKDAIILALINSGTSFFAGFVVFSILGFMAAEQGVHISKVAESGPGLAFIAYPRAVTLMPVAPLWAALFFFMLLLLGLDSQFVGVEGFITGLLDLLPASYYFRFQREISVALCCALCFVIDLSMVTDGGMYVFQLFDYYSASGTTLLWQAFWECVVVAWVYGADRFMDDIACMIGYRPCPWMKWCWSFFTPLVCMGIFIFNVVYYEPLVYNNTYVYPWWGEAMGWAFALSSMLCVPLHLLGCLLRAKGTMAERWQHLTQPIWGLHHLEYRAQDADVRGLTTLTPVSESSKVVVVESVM

[3] = target: T1, CrT; assay: DOX competition assay: 14C-Cr uptake in the presence of DOX and/or B-GPA; format: cell-based; conditions: acute exposure during uptake; 2 μmol/L DOX, 100 μmol/L B-GPA; control = 1.00
Procedure: as §1, §2

[4] = substrate: CN(CC(=O)O)C(=N)N; assay: 14C-Cr transport in HL-1 cells expressing the human CrT protein (dose-response, time course, kinetics); format: cell-based; conditions: other: HL-1 cells expressing human CrT, Michaelis-Menten, no DOX; pH 7.5
Procedure: Cells were plated on tissue culture dishes pre-coated with gelatin/fibronectin and allowed to grow in M199 media (INVITROGEN, Carlsbad, Calif.) containing 2% serum before experimentation. […] The cultures were maintained in a humidified atmosphere of 5% CO2 at 37° C.
Cultures intended for Cr transport measurements were grown in 24-well culture plates, whereas those used to characterize the CrT protein were cultured in 6-well dishes.
Cr transport assays were performed after growth in control media for 0, 4, 12, 24 or 48 hrs.
For experiments with RNCM, each condition was tested in quadruplicate. Measurements were performed in triplicate for experiments performed using HL-1 cells.

Cr transport Vmax [1]: 42.9±5.24 nmol/mg protein
Molecule: CN(CC(=O)O)C(=N)N [Cr, Creatine]

Relative Vmax ± SEM [3]: 0.43 ± 0.11
Molecule: NC(N)=NCCC(=O)O [β-GPA]
IC50 [2]: 50 µM

B1: human CrT (Homo sapiens) (protein)
chain: MAKKSAENGIYSVSGDEKKGPLIAPGPDGAPAKGDGPVGLGTPGGRLAVPPRETWTRQMDFIMSCVGFAVGLGNVWRFPYLCYKNGGGVFLIPYVLIALVGGIPIFFLEISLGQFMKAGSINVWNICPLFKGLGYASMVIVFYCNTYYIMVLAWGFYYLVKSFTTTLPWATCGHTWNTPDCVEIFRHEDCANASLANLTCDQLADRRSPVIEFWENKVLRLSGGLEVPGALNWEVTLCLLACWVLVYFCVWKGVKSTGKIVYFTATFPYVVLVVLLVRGVLLPGALDGIIYYLKPDWSKLGSPQVWIDAGTQIFFSYAIGLGALTALGSYNRFNNNCYKDAIILALINSGTSFFAGFVVFSILGFMAAEQGVHISKVAESGPGLAFIAYPRAVTLMPVAPLWAALFFFMLLLLGLDSQFVGVEGFITGLLDLLPASYYFRFQREISVALCCALCFVIDLSMVTDGGMYVFQLFDYYSASGTTLLWQAFWECVVVAWVYGADRFMDDIACMIGYRPCPWMKWCWSFFTPLVCMGIFIFNVVYYEPLVYNNTYVYPWWGEAMGWAFALSSMLCVPLHLLGCLLRAKGTMAERWQHLTQPIWGLHHLEYRAQDADVRGLTTLTPVSESSKVVVVESVM
notes: swapped with the corresponding fragment from the human full-length open reading frame; expressed in transfected cells; host or cells: HL-1 murine atrial cardiomyocyte line, transient transfection with pcDNA3.1(-) human CrT cDNA
Km [4]: 63.5 ± 2.37 µmol/L
